Where a name gives a salt, the structure may show the parent alone.
System: HCT116
Conditions: 72 h
In short: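 HCT116 cells were seeded at 250 per well in 1536-well plates and left 5 h to attach. CellTiter-Glo luminescence was scaled to vehicle (0%) and positive control (-100%), then pattern-corrected. IC50 and maximal efficacy came from four-parameter Hill fits.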

IC50 cell viability (ICRF193 0 nM) [µM]	IC50 cell viability (ICRF193 200 nM) [µM]	SMILES
> 45.8	> 45.8	CCC(C)(Oc1ccc(C2(c3ccc(OC(C)(CC)C(=O)O)cc3)CCCCC2)cc1)C(=O)O (stereo not given) [Clinofibrate]
> 45.8	> 45.8	C[C@@H]1C[C@H]2[C@@H]3C[C@H](F)C4=CC(=O)C=C[C@]4(C)[C@@]3(Cl)[C@@H](O)C[C@]2(C)[C@H]1C(=O)COC(=O)C(C)(C)C [Clocortolone pivalate]
> 45.8	> 45.8	O=P(O)(O)C(Cl)(Cl)P(=O)(O)O [Clodronate]
> 45.8	> 45.8	NS(=O)(=O)c1ccc(Cl)c(S(N)(=O)=O)c1 [Clofenamide]
> 45.8	> 45.8	CCOC(=O)C(C)(C)Oc1ccc(Cl)cc1 [Clofibrate]
> 45.8	> 45.8	Cc1nc(C)c(Cl)c(O)c1Cl [Clopidol]
> 45.8	> 45.8	O=C(O)CCC/C=C\CC1C(O)CC(O)C1/C=C/C(O)COc1cccc(Cl)c1 (stereo not given) [Cloprostenol (sodium salt)]
> 45.8	> 45.8	Nc1cc(C(Cl)=C(Cl)Cl)c(S(N)(=O)=O)cc1S(N)(=O)=O [Clorsulon]
> 45.8	> 45.8	Cc1onc(-c2ccccc2Cl)c1C(=O)N[C@@H]1C(=O)N2[C@@H]1SC(C)(C)[C@@H]2C(=O)O [Cloxacillin sodium]
> 45.8	> 45.8	Cc1c(C(=O)O)c(O)cc2c1C(=O)c1c(O)c(C3OC(CO)C(O)C(O)C3O)c(O)c(O)c1C2=O (stereo not given) [Cochineal]
> 45.8	> 45.8	COC1=C(OC)C(=O)C(C/C=C(\C)CC/C=C(\C)CC/C=C(\C)CC/C=C(\C)CC/C=C(\C)CC/C=C(\C)CC/C=C(\C)CC/C=C(\C)CC/C=C(\C)CCC=C(C)C)=C(C)C1=O [Coenzyme Q10]
> 45.8	> 45.8	CC(/C=C/C=C(\C)C(=O)O[C@@H]1O[C@H](CO[C@@H]2O[C@H](CO)[C@@H](O)[C@H](O)[C@H]2O)[C@@H](O)[C@H](O)[C@H]1O)=C\C=C\C=C(C)\C=C\C=C(/C)C(=O)O[C@@H]1O[C@H](CO[C@@H]2O[C@H](CO)[C@@H](O)[C@H](O)[C@H]2O)[C@@H](O)[C@H](O)[C@H]1O [Crocin?]
> 45.8	> 45.8	CC(=O)Oc1ccc(C(=C2CCCCC2)c2ccc(OC(C)=O)cc2)cc1 [Cyclofenil]
> 45.8	> 45.8	NS(=O)(=O)c1cc2c(cc1Cl)NC(CC1CCCC1)NS2(=O)=O (stereo not given) [Cyclopenthiazide]
> 45.8	> 45.8	OC(CCN1CCCCC1)(c1ccccc1)C1CCCC1 (stereo not given) [Cycrimine Hydrochloride]
> 45.8	> 45.8	CN1CCC(=C2c3ccccc3C=Cc3ccccc32)CC1 [Cyproheptadine hydrochloride]
> 45.8	> 45.8	CC(=O)O[C@]1(C(C)=O)CC[C@H]2[C@@H]3C=C(Cl)C4=CC(=O)[C@@H]5C[C@@H]5[C@]4(C)[C@H]3CC[C@@]21C [Cyproterone acetate]
> 45.8	> 45.8	NCCS [Cysteamine hydrochloride]
> 45.8	> 45.8	O=C(O)[C@H](O)c1ccccc1 [D-(-)-Mandelic acid]
> 45.8	> 45.8	N[C@H](CC(=O)O)C(=O)O [D-Aspartic acid]
> 45.8	> 45.8	CC12CCC(CC1=O)C2(C)C [D-Camphor]
> 45.8	> 45.8	N[C@@H]1CONC1=O [D-Cycloserine]
> 45.8	> 45.8	OC[C@@H](O)[C@H](O)[C@H](O)[C@@H](O)CO [D-Galactitol]
> 45.8	> 45.8	NC(=O)CC[C@@H](N)C(=O)O [D-Glutamine]
> 45.8	> 45.8	N[C@H](Cc1c[nH]cn1)C(=O)O [D-HISTIDINE]
> 45.8	> 45.8	CC(C)(CO)[C@@H](O)C(=O)NCCC(=O)NCCSSCCNC(=O)CCNC(=O)[C@H](O)C(C)(C)CO [D-Pantethine]
> 45.8	> 45.8	N[C@H](Cc1ccccc1)C(=O)O [D-Phenylalanine]
> 45.8	> 45.8	N[C@H](CO)C(=O)O [D-SERINE]
> 45.8	> 45.8	Cc1cc(O)cc2c1O[C@](C)(CCC[C@H](C)CCC[C@H](C)CCCC(C)C)CC2 [D-delta-Tocopherol]

More lines, now with the values behind:

SMILES	IC50 cell viability (ICRF193 0 nM) [µM]	IC50 cell viability (ICRF193 200 nM) [µM]
CCCCCCCCCCCCCCCC(=O)O[C@@H]1[C@@H](O)[C@@H](O)[C@@H]([C@H](NC(=O)[C@@H]2C[C@@H](CCC)CN2C)[C@H](C)Cl)O[C@@H]1SC [Clindamycin palmitate HCl]	> 45.8	> 45.8
CC(Cc1ccccc1)NCc1ccccc1Cl (stereo not given) [Clobenzorex hydrochloride]	> 45.8	> 45.8
CCC(=O)O[C@]1(C(=O)CCl)[C@@H](C)C[C@H]2[C@@H]3CCC4=CC(=O)C=C[C@]4(C)[C@@]3(F)[C@@H](O)C[C@@]21C [Clobetasol propionate]	> 45.8	> 45.8
CC(CN(C)C)C(C)(O)Cc1ccc(Cl)cc1 (stereo not given) [Clobutinol hydrochloride]	> 45.8	> 45.8
CC(C)/N=c1\cc2n(-c3ccc(Cl)cc3)c3ccccc3nc-2cc1Nc1ccc(Cl)cc1 [Clofazimine]	> 45.8	> 45.8
Cc1ncsc1CCCl [Clomethiazole]	> 45.8	> 45.8
Clc1ccc(C(OCCN2CCCCC2)c2ccccc2)cc1 (stereo not given) [Cloperastine hydrochloride]	> 45.8	> 45.8
Oc1ccc(Cl)cc1Cc1ccccc1 [Clorophene]	> 45.8	> 45.8
CC(C)NCC(O)c1ccccc1Cl (stereo not given) [Clorprenaline hydrochloride]	> 45.8	> 45.8
CN1CCN(C2=Nc3ccccc3Sc3ccc(Cl)cc32)CC1 [Clothiapine]	> 45.8	> 45.8
O=C1CN2CCOC2(c2ccccc2Cl)c2cc(Cl)ccc2N1 (stereo not given) [Cloxazolam]	> 45.8	> 45.8
Oc1ccc(Cl)c2cccnc12 [Cloxyquin]	> 45.8	> 45.8
CN1CCN(C2=Nc3cc(Cl)ccc3Nc3ccccc32)CC1 [Clozapine]	> 45.8	> 45.8
CC(=O)OCC(=O)[C@@]1(O)CC[C@H]2[C@@H]3CCC4=CC(=O)CC[C@]4(C)[C@H]3C(=O)C[C@@]21C [Cortisone acetate]	> 45.8	> 45.8
CCOP(=S)(OCC)Oc1ccc2c(C)c(Cl)c(=O)oc2c1 [Coumaphos]	> 45.8	> 45.8
O=c1ccc2ccccc2o1 [Coumarin]	> 45.8	> 45.8
CCOC(=O)c1cc(=O)c2c(OCC(COc3cccc4oc(C(=O)OCC)cc(=O)c34)OC(=O)[C@@H](N)CCCCN)cccc2o1 [Cromoglicate lisetil]	> 45.8	> 45.8
CC=CC(=O)N(CC)c1ccccc1C [Crotamiton]	> 45.8	> 45.8

SMILES	IC50 cell viability (ICRF193 0 nM) [µM]	IC50 cell viability (ICRF193 200 nM) [µM]
CC1CC(OC(=O)C(O)c2ccccc2)CC(C)(C)C1 (stereo not given) [Cyclandelate]	> 45.8	> 45.8
CN1CCN(C(c2ccccc2)c2ccccc2)CC1 [Cyclizine hydrochloride]	> 45.8	> 45.8
CC1CCCCN1CCCOC(=O)c1ccc(OC2CCCCC2)cc1 (stereo not given) [Cyclomethycaine]	> 45.8	> 45.8
CNC(C)CC1CCCC1 (stereo not given) [Cyclopentamine hydrochloride]	> 45.8	> 45.8
CN(C)CCOC(=O)C(c1ccccc1)C1(O)CCCC1 (stereo not given) [Cyclopentolate hydrochloride]	> 45.8	> 45.8
O=P1(N(CCCl)CCCl)NCCCO1 (stereo not given) [Cyclophosphamide]	> 45.8	> 45.8
NS(=O)(=O)c1cc2c(cc1Cl)NC(C1CC3C=CC1C3)NS2(=O)=O (stereo not given) [Cyclothiazide]	> 45.8	> 45.8
C/C(=C1\CCOC(=O)S1)N(C=O)Cc1cnc(C)nc1N [Cycotiamine]	> 45.8	> 45.8
COP(=S)(OC)Oc1ccc(S(N)(=O)=O)cc1 [Cythioate]	> 45.8	> 45.8
O=C(O)C(O)C(O)C(=O)O (stereo not drawn) [D(-)-Tartaric acid]	> 45.8	> 45.8
OC[C@H]1O[C@H](O[C@H]2[C@H](O)[C@@H](O)C(O)O[C@@H]2CO)[C@H](O)[C@@H](O)[C@@H]1O (stereo partly drawn) [D-(+)-MALTOSE]	> 45.8	> 45.8
C[C@@H](N)C(=O)O [D-Alanine]	> 45.8	> 45.8
O=C1O[C@@H]2[C@@H](O)[C@H](O)O[C@@H]2C1O (stereo partly drawn) [D-Glucuronolactone]	> 45.8	> 45.8
N[C@H](CCC(=O)O)C(=O)O [D-Glutamic acid]	> 45.8	> 45.8
CC(C)C[C@@H](N)C(=O)O [D-Leucine]	> 45.8	> 45.8
CN1CCC[C@@H]1c1cccnc1 [D-Nicotine]	> 45.8	> 45.8
Cc1c(C)c2c(c(C)c1OC(=O)CCC(=O)O)CC[C@@](C)(CCC[C@H](C)CCC[C@H](C)CCCC(C)C)O2 [D-alpha-Tocopherol succinate]	> 45.8	> 45.8
CCN(CC)C(=O)c1cccc(C)c1 [DEET]	> 45.8	> 45.8

From the supplement of paper PMC12137928
